Laboratory results: patent EP0165970B1, “HAIR GROWTH MODIFICATION” (KASZYNSKI, Edwin G., priority 1983, dated 1985)

What was measured:
flank organ hair = experiment: Flank organ hair mass (hair re-growth) after topical application; type: in vivo; conditions: adult intact male hamsters
Text: The absence of antagonism of synthemic androgen activity in the practice of our invention can be shown by the topical application of suitable compositions to one of the two flank organs of mature male hamsters. Dose-related decreases in androgen-dependent flank organ hair growth are obtained on the treated side but no statistically significant change occurs in the contralateral, vehicle-treated side. Similar studies have been conducted using female hamsters in which hair growth on the flank organs has been stimulated by the subcutaneous administration of a suitable androgen.
Summarized below are the results of several experiments comparing the efficacy of several compositions in reducing the flank organ hair mass in adult intact male hamsters. In each case, hamsters were treated for 15 days (Monday-Friday) during a 21-day interval. Flank organ hairs were depilated on the first day of treatment and redepilated on the sixth day of treatment. The mass of flank organ hair represents the re-growth during the final 14 days of the 21-day interval. The results for percent inhibition shown below are based upon comparisons between the hair mass values of hairs hervested from treated flank organs of experimental animals and those obtained from vehicle-treated control animals.

[1] = system: ornithine decarboxylase (ODC); experiment: Flank organ ornithine decarboxylase (ODC) activity, in vivo screen for topical antiandrogens; parameters: species or system hamsters; conditions: for ODC activity in flank organs: applied topically, single agents
Text: A novel method for screening topical antiandrogens has been developed in which the fluctuations in flank organ activity of the enzyme ornithine decarboxylase (ODC) in response to androgens and antiandrogens is exploited to provide a rapid, in vivo screen for antiandrogens, based on a biochemical parameter specifically related to androgenic stimulation of pilosebaceous target tissues.
A further series of investigations on the androgenic regulation of ODC activity in hamster flank organs has been conducted to test topical antiandrogenic formulations consisting of combination regimens.

[2] = unilateral topical application, flank organs of intact (uncastrated) male hamsters
[3] = topical, androgen stimulated female hamsters
[4] = Experiment III, 500 micrograms per square centimeter

CCC[C@]1(O)CC[C@H]2[C@@H]3CCC4=CC(=O)CC[C@]4(C)[C@H]3CC[C@@]21C [17-α-Propyltestosterone]
% Inhibition (flank organ hair; Experiment I, 6 micrograms per square centimeter): 26% | ODC activity in flank organs [1]: inhibit ODC activity | ODC activity [1, 2]: selectively decreased ODC activity on treated but not untreated flank organs

CC(=O)O[C@]1(C(C)=O)CC[C@H]2[C@@H]3C=C(Cl)C4=CC(=O)[C@@H]5C[C@@H]5[C@]4(C)[C@H]3CC[C@@]21C [Cyproterone acetate]
% Inhibition (flank organ hair; Experiment I, 500 micrograms per square centimeter): 26% | % Inhibition (flank organ hair; Experiment II, 50 micrograms per square centimeter): 23% | % Inhibition (flank organ hair; Experiment II, 500 micrograms per square centimeter): 38% | ODC activity in flank organs [1]: inhibit ODC activity | ODC activity [1, 3]: inhibited ODC activity

CC(=O)S[C@@H]1CC2=CC(=O)CC[C@]2(C)[C@H]2CC[C@@]3(C)[C@@H](CC[C@@]34CCC(=O)O4)[C@H]12 [Spironolactone]
% Inhibition (flank organ hair; [4]): 41%

CC(=O)[C@H]1CC[C@H]2[C@@H]3CCC4=CC(=O)CC[C@]4(C)[C@H]3CC[C@]12C [Progesterone]
% Inhibition (flank organ hair; Experiment I, 15 days treatment in 21-day interval, 1000 micrograms per square centimeter): 30% | % Inhibition (flank organ hair; Experiment III, 1000 micrograms per square centimeter): 57% | % Inhibition (flank organ hair; Experiment IV, 1000 micrograms per square centimeter): 48% | ODC activity in flank organs [1]: inhibit ODC activity | ODC activity [1, 3]: inhibited ODC activity

C[C@]12CC[C@H]3[C@@H](CCC4=CC(=O)CC[C@@]43C)[C@@H]1CC[C@@H]2C(=O)O [4-androstene-3-one-17B- Carboxylic acid]
% Inhibition (flank organ hair; Experiment II, 400 micrograms per square centimeter): 29%

CC(=O)O[C@]1(C(C)=O)CC[C@H]2[C@@H]3C=C(Cl)C4=CC(=O)CC[C@]4(C)[C@H]3CC[C@@]21C [Chlormadione acetate]
% Inhibition (flank organ hair; [4]): 45% | ODC activity in flank organs [1]: inhibit ODC activity

C=CC[C@]1(O)CC[C@H]2[C@@H]3CCC4=CC(=O)CC[C@]4(C)[C@H]3CC[C@@]21C [17-α-allyltestosterone]
% Inhibition (flank organ hair; Experiment IV, 5 micrograms per square centimeter): 0% | % Inhibition (flank organ hair; Experiment IV, 20 micrograms per square centimeter): 29% | % Inhibition (flank organ hair; Experiment IV, 50 micrograms per square centimeter): 50% | % Inhibition (flank organ hair; Experiment IV, 100 micrograms per square centimeter): 50% | ODC activity in flank organs [1]: inhibit ODC activity | ODC activity [1, 2]: selectively decreased ODC activity on treated but not untreated flank organs
